“And” between values parts separate entries of the source, which are not always exact repeats. Identical values can stand only once. “Also recorded” adds a separate entry of the source. Counter-ions that a name gives are not always drawn. Like-named read-outs stand apart in the source and are kept apart here.
What was measured:
α3β4*-nAChR = α3β4*-nAChR (Mus musculus, UniProt Q8R493+Q8R4G9); experiment: [3H]-ACh release from IPN synaptosomes; format: biochemical; conditions: for Functional character at α3β4*: [3H]-ACh release from IPN synaptosomes
α4L9'A knock-in mice [1] = experiment: Hypothermia in α4L9'A knock-in mice; format: in vivo, mouse; conditions: for Physiological effect α4L9'Aβ2*: ip
α6β2*-nAChR [2] = target: T1, α6β2*-nAChR (Mus musculus, UniProt Q9ERK7+Q9R0W9); experiment: α-CtxMII-sensitive [3H]-dopamine release from striatal synaptosomes; format: biochemical
α7-nAChR = α7-nAChR (Mus musculus, UniProt P49582); experiment: biochemical; format: binding
α4β2*-nAChR [3] = target: T2, α4β2*-nAChR (Mus musculus, UniProt O70174+Q9ERK7); experiment: α-CtxMII-resistant [3H]-dopamine release from striatal synaptosomes; format: biochemical
hα7-nAChR = hα7-nAChR (Homo sapiens, UniProt P36544); experiment: cell-based; format: cell-based; conditions: for Emax: GH4-C1, read-out: Efficacy α7; for EC50: read-out: EC50 α7
α6L9'S transgenic mice [4] = conditions: ref Drenan et al, 2008, cited from earlier work; for Physiological effect α6L9'Sβ2*: locomotor, ip, dose in parentheses mg/kg
α6L9'S transgenic mice [5] = experiment: Locomotor activity in α6L9'S transgenic mice; format: in vivo, mouse; conditions: for Physiological effect α6L9'Sβ2*: locomotor, ip, dose in parentheses mg/kg
α4β2*-nAChR [6] = target: T2, α4β2*-nAChR; conditions: ref Salminen et al, 2004; cited from earlier work
α6β2*-nAChR [7] = target: T1, α6β2*-nAChR; conditions: ref Salminen et al, 2004; cited from earlier work
α4L9'A knock-in mice [8] = conditions: ref Tapper et al, 2007, cited from earlier work; for Physiological effect α4L9'Aβ2*: ip, dose in parentheses mg/kg
α6L9'S mice = conditions: 0.1 mg/kg; unpublished data
[9] = EC50 α3β4*, activation, [3H]ACh release
[10] = Ki α4β2* (1st number, [3H]DA release assay, marked #)
[11] = read-out: Ki α4β2* (1st number, [3H]DA release assay, marked #)
[12] = dose in parentheses mg/kg, block = block of low dose nicotine
[13] = EC50 α6β2*, activation, α-CtxMII-sensitive DA release
[14] = EC50 α4β2* (1st number, [3H]DA release assay), activation, curve fit

T1 sequence (Q9R0W9 31-494): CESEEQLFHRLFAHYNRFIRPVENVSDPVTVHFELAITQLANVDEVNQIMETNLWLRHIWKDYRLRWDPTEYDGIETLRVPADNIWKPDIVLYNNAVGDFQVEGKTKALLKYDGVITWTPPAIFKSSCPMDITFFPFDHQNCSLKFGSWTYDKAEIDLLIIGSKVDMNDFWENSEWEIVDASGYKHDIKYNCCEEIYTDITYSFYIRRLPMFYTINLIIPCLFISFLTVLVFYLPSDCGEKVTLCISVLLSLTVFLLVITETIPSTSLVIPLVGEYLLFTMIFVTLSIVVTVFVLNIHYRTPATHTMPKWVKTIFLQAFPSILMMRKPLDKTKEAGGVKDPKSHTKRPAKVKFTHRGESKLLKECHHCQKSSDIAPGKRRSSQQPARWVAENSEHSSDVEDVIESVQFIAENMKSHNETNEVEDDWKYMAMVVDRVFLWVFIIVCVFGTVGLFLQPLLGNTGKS
T1 sequence (Q9ERK7 26-501): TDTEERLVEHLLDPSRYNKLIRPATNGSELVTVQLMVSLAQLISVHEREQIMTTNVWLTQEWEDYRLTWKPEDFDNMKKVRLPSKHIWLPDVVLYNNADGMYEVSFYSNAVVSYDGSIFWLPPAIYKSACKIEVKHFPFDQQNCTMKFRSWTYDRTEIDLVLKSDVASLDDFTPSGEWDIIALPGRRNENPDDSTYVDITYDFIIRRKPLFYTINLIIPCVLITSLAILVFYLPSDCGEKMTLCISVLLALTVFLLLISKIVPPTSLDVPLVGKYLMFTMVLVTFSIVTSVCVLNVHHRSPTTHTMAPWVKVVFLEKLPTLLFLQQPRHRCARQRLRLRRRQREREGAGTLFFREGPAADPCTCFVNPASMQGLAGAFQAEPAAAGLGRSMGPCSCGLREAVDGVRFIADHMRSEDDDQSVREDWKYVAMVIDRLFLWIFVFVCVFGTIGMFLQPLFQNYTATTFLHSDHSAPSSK
T1 sequence (Q8BMN3 31-464 partner): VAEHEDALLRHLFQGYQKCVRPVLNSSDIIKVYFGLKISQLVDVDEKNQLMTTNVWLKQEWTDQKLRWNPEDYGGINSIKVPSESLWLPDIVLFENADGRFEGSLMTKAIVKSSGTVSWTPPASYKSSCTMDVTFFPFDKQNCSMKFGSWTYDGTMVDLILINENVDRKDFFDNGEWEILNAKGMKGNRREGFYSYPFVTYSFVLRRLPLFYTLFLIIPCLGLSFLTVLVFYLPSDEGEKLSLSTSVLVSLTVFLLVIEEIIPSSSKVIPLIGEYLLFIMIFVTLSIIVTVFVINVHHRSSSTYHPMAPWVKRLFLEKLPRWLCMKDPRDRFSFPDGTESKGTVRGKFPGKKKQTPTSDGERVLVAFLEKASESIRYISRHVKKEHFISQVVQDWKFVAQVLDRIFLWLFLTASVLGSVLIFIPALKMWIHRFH
α3β4*-nAChR, sequence (Q8R4G9 26-499): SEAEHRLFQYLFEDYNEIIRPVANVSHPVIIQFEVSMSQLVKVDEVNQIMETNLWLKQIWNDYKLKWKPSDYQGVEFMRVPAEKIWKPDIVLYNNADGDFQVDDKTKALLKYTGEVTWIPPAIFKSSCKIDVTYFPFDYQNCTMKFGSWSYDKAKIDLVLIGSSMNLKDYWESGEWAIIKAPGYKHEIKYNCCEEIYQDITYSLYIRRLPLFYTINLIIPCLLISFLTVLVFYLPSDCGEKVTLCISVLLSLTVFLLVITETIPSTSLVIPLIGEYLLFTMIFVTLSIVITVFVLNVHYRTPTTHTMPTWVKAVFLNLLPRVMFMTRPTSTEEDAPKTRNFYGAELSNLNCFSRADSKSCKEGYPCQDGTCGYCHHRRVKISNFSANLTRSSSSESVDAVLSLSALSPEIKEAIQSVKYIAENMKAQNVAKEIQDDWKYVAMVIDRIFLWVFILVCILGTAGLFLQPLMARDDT
α3β4*-nAChR, sequence (Q8R493 21-495): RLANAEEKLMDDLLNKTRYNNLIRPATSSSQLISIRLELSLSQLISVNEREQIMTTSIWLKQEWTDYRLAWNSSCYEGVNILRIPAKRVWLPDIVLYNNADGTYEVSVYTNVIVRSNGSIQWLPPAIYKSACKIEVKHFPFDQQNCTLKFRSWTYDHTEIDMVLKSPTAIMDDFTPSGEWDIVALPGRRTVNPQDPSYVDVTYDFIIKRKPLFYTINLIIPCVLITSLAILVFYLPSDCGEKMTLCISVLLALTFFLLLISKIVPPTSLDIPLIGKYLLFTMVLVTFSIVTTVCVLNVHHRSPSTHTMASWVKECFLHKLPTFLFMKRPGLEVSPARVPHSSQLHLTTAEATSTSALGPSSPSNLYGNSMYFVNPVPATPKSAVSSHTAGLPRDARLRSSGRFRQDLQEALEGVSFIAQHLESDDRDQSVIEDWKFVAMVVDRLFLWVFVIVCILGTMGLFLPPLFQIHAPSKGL
T2 sequence (O70174 31-629): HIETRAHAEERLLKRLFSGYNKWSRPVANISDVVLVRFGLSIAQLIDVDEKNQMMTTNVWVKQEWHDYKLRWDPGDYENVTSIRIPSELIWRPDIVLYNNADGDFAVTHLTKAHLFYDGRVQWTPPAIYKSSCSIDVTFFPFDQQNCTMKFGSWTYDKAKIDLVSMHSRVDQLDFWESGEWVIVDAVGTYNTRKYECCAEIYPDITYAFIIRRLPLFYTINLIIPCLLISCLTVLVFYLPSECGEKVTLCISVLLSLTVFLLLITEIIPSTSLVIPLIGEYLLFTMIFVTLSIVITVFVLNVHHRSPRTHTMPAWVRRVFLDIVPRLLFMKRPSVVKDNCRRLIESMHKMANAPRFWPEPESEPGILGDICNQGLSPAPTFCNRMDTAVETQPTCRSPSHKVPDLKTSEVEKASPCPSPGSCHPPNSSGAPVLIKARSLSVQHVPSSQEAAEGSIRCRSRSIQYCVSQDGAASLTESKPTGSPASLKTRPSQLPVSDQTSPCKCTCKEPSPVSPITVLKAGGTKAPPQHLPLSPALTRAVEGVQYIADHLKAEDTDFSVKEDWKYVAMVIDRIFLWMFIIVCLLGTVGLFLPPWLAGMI
T2 sequence (Q9ERK7 26-501): as the sequence (Q9ERK7 26-501) above
α7-nAChR, sequence (P49582 23-502): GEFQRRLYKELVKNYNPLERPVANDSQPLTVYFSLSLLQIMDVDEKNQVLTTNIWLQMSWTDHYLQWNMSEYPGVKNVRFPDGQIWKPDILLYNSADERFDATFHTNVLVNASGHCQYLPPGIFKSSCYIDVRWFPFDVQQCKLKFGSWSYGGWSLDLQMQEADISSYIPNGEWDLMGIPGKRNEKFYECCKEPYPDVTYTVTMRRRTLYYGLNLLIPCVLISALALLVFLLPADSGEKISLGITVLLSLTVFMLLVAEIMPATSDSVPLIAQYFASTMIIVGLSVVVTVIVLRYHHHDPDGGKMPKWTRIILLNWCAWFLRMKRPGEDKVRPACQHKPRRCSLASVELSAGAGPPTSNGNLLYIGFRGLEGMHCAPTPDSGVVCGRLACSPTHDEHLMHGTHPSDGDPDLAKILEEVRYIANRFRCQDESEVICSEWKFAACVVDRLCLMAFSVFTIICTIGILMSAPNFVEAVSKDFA
hα7-nAChR, sequence (P36544 23-502): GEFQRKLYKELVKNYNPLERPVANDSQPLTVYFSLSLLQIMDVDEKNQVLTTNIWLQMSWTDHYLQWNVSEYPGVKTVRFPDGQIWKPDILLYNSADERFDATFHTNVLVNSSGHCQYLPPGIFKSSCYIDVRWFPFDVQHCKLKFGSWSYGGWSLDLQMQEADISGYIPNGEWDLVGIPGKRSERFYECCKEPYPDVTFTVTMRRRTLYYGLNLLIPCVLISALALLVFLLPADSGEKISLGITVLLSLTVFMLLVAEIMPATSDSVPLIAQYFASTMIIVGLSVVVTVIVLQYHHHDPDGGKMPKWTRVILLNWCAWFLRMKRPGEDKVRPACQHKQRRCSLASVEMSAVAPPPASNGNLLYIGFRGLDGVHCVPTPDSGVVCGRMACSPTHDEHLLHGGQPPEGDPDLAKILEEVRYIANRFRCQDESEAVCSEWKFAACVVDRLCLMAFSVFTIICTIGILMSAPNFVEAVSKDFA

c1cncc(CC2CC3CCN2CC3)c1 (centres unmarked) [Compound 5, 2-(pyridin-3-ylmethyl)quinuclidine]
Functional character at α3β4* (α3β4*-nAChR): full or nearly full agonists | Physiological effect α4L9'Aβ2* (α4L9'A knock-in mice [1]; mouse, in vivo): did not have intrinsic activity, nor did they block the effect of nicotine; also recorded: no effect

c1cncc(C2CCC3CCN2CC3)c1 (centres unmarked) [Compound 3, 2-(pyridine-3-yl)-1-azabicyclo[3.2.2]nonane]
EC50 (α3β4*-nAChR; [9]): 2200 ± 300 nM | Functional character at α3β4* (α3β4*-nAChR): full or nearly full agonists | Physiological effect α4L9'Aβ2* (α4L9'A knock-in mice [1]; mouse, in vivo): blocked the effects of 0.1 mg/kg nicotine; also recorded: block (0.002) | Ki (α6β2*-nAChR [2]): 52 ± 22 nM | Ki (α7-nAChR): 2.2 ± 0.5 nM | Ki (α4β2*-nAChR [3]; [10]): 14 nM | Functional character at α7 (hα7-nAChR): full agonists | Emax (hα7-nAChR): 106%

c1ccc(-c2cncc(C3CC4CCN3CC4)c2)cc1 [Compound 6, (4S)-2-(5-phenylpyridin-3-yl)quinuclidine]
Efficacy α3β4* (α3β4*-nAChR): -100 ± 7% | Functional character at α3β4* (α3β4*-nAChR): full antagonists | Ki (α3β4*-nAChR; read-out: Ki α3β4* (marked #)): 660 ± 170 nM | Efficacy α6β2* (α6β2*-nAChR [2]): -100 ± 19% | Ki (α6β2*-nAChR [2]; read-out: Ki α6β2* (marked #)): 1780 ± 1740 nM | Decrease in α7 binding affinity relative to Compound 1 (α7-nAChR): approximately 50 fold | Efficacy α4β2* (first number, [3H]DA release) (α4β2*-nAChR [3]): -94 ± 2% | Ki (α4β2*-nAChR [3]; [11]): 230 nM | Efficacy α7 (hα7-nAChR): 18 ± 6% | EC50 (hα7-nAChR; peak current, GH4C1 cells): 29000 ± 5400 nM

2-((5-chloropyridin-3-yloxy)methyl)quinuclidine [Compound 11]
Efficacy α3β4* (α3β4*-nAChR): 8% and 8 ± 2% | Functional character at α3β4* (α3β4*-nAChR): partial agonists | EC50 (α3β4*-nAChR; read-out: EC50 α3β4*, activation, [3H]ACh release): 7000 ± 1000 nM | Physiological effect α4L9'Aβ2* (α4L9'A knock-in mice [1]; mouse, in vivo): did not have intrinsic activity, nor did they block the effect of nicotine; also recorded: inconclusive | Efficacy α6β2* (α6β2*-nAChR [2]): -100 ± 18% | Reduction of antagonist potency at α6β2* relative to Compound 5 (α6β2*-nAChR [2]): 2 fold | Ki (α6β2*-nAChR [2]; read-out: Ki α6β2* (marked #)): 910 ± 656 nM | Efficacy α4β2* (first number, [3H]DA release) (α4β2*-nAChR [3]): -100 ± 9% | Reduction of antagonist potency at α4β2* relative to Compound 5 (α4β2*-nAChR [3]): 16 fold | Ki (α4β2*-nAChR [3]; [11]): 490 nM | Efficacy α7 (hα7-nAChR): 31% and 31 ± 12% | EC50 (hα7-nAChR; peak current, GH4C1 cells): 4260 ± 730 nM

c1cncc(C2CC3CCN2CC3)c1 (racemic) [Compound 1, (±)-2-(-3-pyridinyl)-1-azabicyclo[2.2.2]octane]
Temperature drop in α4L9'A mice (α4L9'A knock-in mice [1]; 0.03 mg/kg i.p.): ~8 ° | Physiological effect α4L9'Aβ2* (α4L9'A knock-in mice [1]; mouse, in vivo): hypothermia (0.03) | Physiological effect α6L9'Sβ2* (α6L9'S transgenic mice [4]): locomotor activation; also recorded: activation (0.01) ^2 | Increase in activity over saline in α6L9'S mice (α6L9'S transgenic mice [5]; 0.01 mg/kg i.p.): ~290%

CNC(C)C/C=C/c1cncc(C#Cc2ccccc2)c1 (centres unmarked) [Compound 9, (E)-N-methyl-5-(5-(phenylethynyl)pyridin-3-yl)pent-4-en-2-amine]
Ki (α3β4*-nAChR): 14000 ± 300 nM | Functional character at α3β4* (α3β4*-nAChR): full antagonists | Physiological effect α4L9'Aβ2* (α4L9'A knock-in mice [1]; mouse, in vivo): did not have intrinsic activity, nor did they block the effect of nicotine; also recorded: no effect | Inhibition at α6β2* (partial antagonism) (α6β2*-nAChR [2]): ~50% | Ki (α6β2*-nAChR [2]): 4100 ± 83 nM | Ki (α7-nAChR): 30700 ± 4100 nM | Ki (α4β2*-nAChR [3]; [10]): 3900 nM | Efficacy α7 (hα7-nAChR): naa | EC50 α7 (hα7-nAChR; peak current, GH4C1 cells): naa

c1cnc2cc3c(cc2n1)[C@@H]1CNC[C@H]3C1 [Varenicline, reference compound]
EC50 (α3β4*-nAChR): 12000 ± 300 nM | Physiological effect α4L9'Aβ2* (α4L9'A knock-in mice [1]; [12]): hypothermia (0.001) | EC50 (α6β2*-nAChR [2]): 77 ± 169 nM | Physiological effect α6L9'Sβ2* (α6L9'S transgenic mice [5]): activation (0.1) | Physiological effect α6L9'Sβ2* (α6L9'S transgenic mice [5]; listed as varenicline): locomotor hyperactivity | Ki (α7-nAChR): 42 ± 5 nM | EC50 (α4β2*-nAChR [3]): 50 ± 12 nM | Emax (hα7-nAChR): 78 ± 24%

c1cncc(C2C3CCN2CC3)c1 (centres unmarked) [Compound 2, 7-(pyridin-3-yl)-1-azabicyclo[2.2.1]heptane]
EC50 (α3β4*-nAChR): 4200 ± 500 nM | Functional character at α3β4* (α3β4*-nAChR): full or nearly full agonists | Physiological effect α4L9'Aβ2* (α4L9'A knock-in mice [1]; [12]): elicited responses; also recorded: hypothermia (0.03) | EC50 (α6β2*-nAChR [2]; [13]): 50 ± 23 nM | Functional character at α6β2* (α6β2*-nAChR [2]; α-CtxMII-sensitive DA release): full agonist | Physiological effect α6L9'Sβ2* (α6L9'S transgenic mice [5]): elicited responses; also recorded: locomotor activation; also recorded: activation (0.1) | Ki (α7-nAChR): 32.9 ± 1.3 nM | EC50 (α4β2*-nAChR [3]; [14]): 1040 ± 280 nM | Functional character at α7 (hα7-nAChR): full agonist | Emax (hα7-nAChR): 108%

N#Cc1ccc(Oc2cncc(C3CC4CCN3CC4)c2)cc1 (centres unmarked) [Compound 7, 4-(5-(quinuclidin-2-yl)pyridin-3-yloxy)benzonitrile]
Ki (α3β4*-nAChR): 7000 ± 2000 nM | Functional character at α3β4* (α3β4*-nAChR): full or nearly full agonists | Physiological effect α4L9'Aβ2* (α4L9'A knock-in mice [1]; mouse, in vivo): blocked the effects of 0.1 mg/kg nicotine; also recorded: block (0.01) | Antagonist potency at α6β2* relative to Compound 6 (times more potent) (α6β2*-nAChR [2]): 40 times | Ki (α6β2*-nAChR [2]): 48 ± 3 nM | Physiological effect α6L9'Sβ2* (α6L9'S transgenic mice [5]): block (0.1) | Ki (α7-nAChR): 23.4 ± 7.9 nM | Ki (α4β2*-nAChR [3]; [10]): 66 nM

CN1[C@@H]2CC[C@H]1C=C(c1cncc(Br)c1)C2 [Compound 10, (1R,5S)-3-(5-bromopyridin-3-yl)-8-methyl-8-azabicyclo[3.2.1]oct-3-ene]
EC50 (α3β4*-nAChR; [9]): 7200 ± 600 nM | Functional character at α3β4* (α3β4*-nAChR): partial agonists | Physiological effect α4L9'Aβ2* (α4L9'A knock-in mice [1]; mouse, in vivo): elicited responses; also recorded: hypothermia (0.1) | EC50 (α6β2*-nAChR [2]; [13]): 117 ± 69 nM | EC50 (α6β2*-nAChR [2]; EC50 α-CtxMII-sensitive (α6β2*) [3H]-DA release): 120 nM | Functional character at α6β2* (α6β2*-nAChR [2]; α-CtxMII-sensitive DA release): partial agonist | Physiological effect α6L9'Sβ2* (α6L9'S transgenic mice [5]): elicited responses; also recorded: locomotor activation; also recorded: activation (0.1) | Ki (α7-nAChR): 128 ± 36 nM | Efficacy as % of Compound 8, α-CtxMII-resistant DA release (α4β2*-nAChR [3]): 25% | Increase in potency relative to Compound 8, α-CtxMII-resistant DA release (α4β2*-nAChR [3]): 83 fold | EC50 (α4β2*-nAChR [3]; [14]): 178 ± 94 nM | EC50 (α4β2*-nAChR [3]; EC50 α-CtxMII-resistant (α4β2*) [3H]-DA release): 180 nM | Emax (hα7-nAChR): 55 ± 9%

O=c1cccc2n1C[C@@H]1CNC[C@H]2C1 [cytisine]
Efficacy at α4β2*-nAChRs (α4β2*-nAChR [6]): 37% | Efficacy at α6β2* (α6β2*-nAChR [7]): 71%

CNCC/C=C/c1cccnc1 [Compound 8, (E)-N-methyl-4-(3-pyridinyl)-3-butene-1-amine]
Functional character at α3β4* (α3β4*-nAChR): partial agonists | Physiological effect α4L9'Aβ2* (α4L9'A knock-in mice [1]; mouse, in vivo): elicited responses; also recorded: hypothermia (0.2) | Functional character at α6β2* (α6β2*-nAChR [2]; α-CtxMII-sensitive DA release): no measurable activity | Physiological effect α6L9'Sβ2* (α6L9'S transgenic mice [4]): elicited responses; also recorded: elicit a response; also recorded: activation (1.0) ^2 | Ki (α7-nAChR): 3070 ± 800 nM | EC50 (α4β2*-nAChR [3]): 14800 ± 10100 nM | Emax (hα7-nAChR): 17 ± 7%

c1cncc(C2C3CC4CC(C3)CN2C4)c1 (centres unmarked) [Compound 4, 1-aza-2-(3-pyridinyl)-tricyclo[3.3.1.13,7]decane]
EC50 (α3β4*-nAChR; EC50 α3β4* [3H]-ACh release): 8500 nM | EC50 (α3β4*-nAChR; [9]): 34000 ± 8000 nM | Functional character at α3β4* (α3β4*-nAChR): full or nearly full agonists | Physiological effect α4L9'Aβ2* (α4L9'A knock-in mice [1]; mouse, in vivo): blocked the effects of 0.1 mg/kg nicotine; also recorded: block (0.01) | Ki (α6β2*-nAChR [2]): 570 ± 299 nM | Ki (α7-nAChR): 64.5 ± 5.5 nM | Ki (α4β2*-nAChR [3]; [10]): 78 nM

CN1CCC[C@H]1c1cccnc1 [Nicotine, (-)-nicotine tartrate]
Temperature decrease in α4L9'A mice (α4L9'A knock-in mice [8]; 0.03 mg/kg): 3 °C | Physiological effect α4L9'Aβ2* (α4L9'A knock-in mice [8]): hypothermia (0.01) ^1 | Physiological effect α4L9'Aβ2* (α4L9'A knock-in mice [8]; listed as nicotine): hypothermia | Locomotor activation, % of saline activity in α6L9'S mice (α6L9'S transgenic mice [4]; 0.15 mg/kg ip): ~350% | Physiological effect α6L9'Sβ2* (α6L9'S transgenic mice [4]): activation (0.1) ^2 | Physiological effect α6L9'Sβ2* (α6L9'S transgenic mice [4]; listed as nicotine): locomotor hyperactivity | Temperature decrease in α6L9'S mice (α6L9'S mice): < 1 °C

Source: publication PMC2849849 (Neuropharmacology, 2010)
